Data on 21 compounds can be found in PubChem BioAssay AID248 (DTP/NCI, 2004).

Several values for one entry are separate records, joined by “and”; a condition that tells them apart may be missing. Identical values can stand only once. Toxic doses and inconclusive results are not listed.

For the experiment, the system named is L1210 leukemia ip in BDF1 mice, survival T/C. The experiment in a line: NCI In Vivo Anticancer Drug Screen. Data for tumor model L1210 Leukemia (intraperitoneal) in B6D2F1 (BDF1) mice. Conditions: endpoint: mean survival time, higher = longer survival. The procedure, abridged:
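Read-out is survival time, reported as the treated-group measurement over the vehicle-control measurement.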

[1] abbreviates: dose: 50.0 mg/kg/injection, schedule: Q01DX009 (ip), vehicle: saline.
Where [2] appears, read: dose: 100.0 mg/kg/injection, schedule: Q01DX009 (ip), vehicle: saline.
Where [3] appears, read: dose: 100.0 mg/kg/injection, schedule: Q04DX003 (ip), vehicle: saline.
The mark [4] stands for this setting: dose: 200.0 mg/kg/injection, schedule: Q01DX009 (ip), vehicle: saline.
[5] abbreviates: dose: 200.0 mg/kg/injection, schedule: Q04DX003 (ip), vehicle: saline.
Setting [6] is: dose: 400.0 mg/kg/injection, schedule: Q04DX003 (ip), vehicle: saline.
Setting [7] is: dose: 100.0 mg/kg/injection, schedule: Q01DX001 (ip), vehicle: saline.
The mark [8] stands for this setting: dose: 200.0 mg/kg/injection, schedule: Q01DX001 (ip), vehicle: saline.
Where [9] appears, read: dose: 400.0 mg/kg/injection, schedule: Q01DX001 (ip), vehicle: saline.
Where [10] appears, read: dose: 100.0 mg/kg/injection, schedule: Q04DX003 (ip), vehicle: Klucel (hydroxypropylcellulose) (HPC).
Setting [11] is: dose: 200.0 mg/kg/injection, schedule: Q04DX003 (ip), vehicle: Klucel (hydroxypropylcellulose) (HPC).
[12] abbreviates: dose: 400.0 mg/kg/injection, schedule: Q04DX003 (ip), vehicle: Klucel (hydroxypropylcellulose) (HPC).
Where [13] appears, read: dose: 100.0 mg/kg/injection, schedule: Q01DX001 (ip), vehicle: Klucel (hydroxypropylcellulose) (HPC).
Where [14] appears, read: dose: 100.0 mg/kg/injection, schedule: Q04DX002 (ip), vehicle: Klucel (hydroxypropylcellulose) (HPC).
The mark [15] stands for this setting: dose: 200.0 mg/kg/injection, schedule: Q04DX002 (ip), vehicle: Klucel (hydroxypropylcellulose) (HPC).
Setting [16] is: dose: 100.0 mg/kg/injection, schedule: Q01DX009 (ip), vehicle: Klucel (hydroxypropylcellulose) (HPC).
[17] abbreviates: dose: 200.0 mg/kg/injection, schedule: Q01DX009 (ip), vehicle: Klucel (hydroxypropylcellulose) (HPC).

Regarding `CN1CCN(C(=O)OCCOCCOC(=O)N2CCN(C)CC2)CC1`, the T/C by setting is: (dose: 150.0 mg/kg/injection, schedule: Q01DX Z (ip), vehicle: saline) 108 % of control; (dose: 230.0 mg/kg/injection, schedule: Q01DX Z (ip), vehicle: saline) 93 % of control; (dose: 350.0 mg/kg/injection, schedule: Q01DX Z (ip), vehicle: saline) 100 % of control.
`CCOC(=O)NNC(=O)CN`: the T/C (dose: 75.0 mg/kg/injection, schedule: Q01DX001 (ip), vehicle: saline) is 104 % of control.
For `CCOC(=O)C(=O)Nc1ccc(Cl)cc1`, the T/C is, setting by setting: (dose: 100.0 mg/kg/injection, schedule: Q01DX001 (ip), vehicle: saline with Tween-80) 96 % of control; (dose: 200.0 mg/kg/injection, schedule: Q01DX001 (ip), vehicle: saline with Tween-80) 96 % of control; (dose: 400.0 mg/kg/injection, schedule: Q01DX001 (ip), vehicle: saline with Tween-80) 95 % of control.
`CCOC(=O)N(Cc1ccccc1)C1CC1`: the T/C by setting is: (dose: 25.0 mg/kg/injection, schedule: Q01DX009 (ip), vehicle: saline) 95 % of control; (dose: 25.0 mg/kg/injection, schedule: Q04DX003 (ip), vehicle: saline) 104 % of control; under setting [1], 104 % of control; under setting [2], 102 % of control; under setting [3], 104 % of control; under setting [4], 98 % of control. Also, the T/C was 104 % of control under setting [5]; 103 % of control (dose: 400.0 mg/kg/injection, schedule: Q01DX009 (ip), vehicle: saline); 102 % of control under setting [6].
Turning to `Oc1ccc(-c2ccccc2)cc1O`, the T/C by setting is: under setting [7], 105 % of control; under setting [8], 109 % of control; under setting [9], 109 % of control.
Regarding `COc1nc2ccccc2nc1N1CC1`, the T/C was 103 % of control (dose: 26.0 mg/kg/injection, schedule: Q01DX009 (ip), vehicle: acetone); 101 % of control (dose: 40.0 mg/kg/injection, schedule: Q01DX009 (ip), vehicle: acetone); 108 % of control (dose: 60.0 mg/kg/injection, schedule: Q01DX009 (ip), vehicle: acetone); 101 % of control (dose: 90.0 mg/kg/injection, schedule: Q01DX009 (ip), vehicle: acetone); 121 % of control (dose: 135.0 mg/kg/injection, schedule: Q01DX009 (ip), vehicle: acetone).
Regarding `CN(C)CCCN1CC2C3CCCCC3=C3CCCCC3C2C1` (stereo unspecified), the T/C (dose: 50.0 mg/kg/injection, schedule: Q01DX001 (ip), vehicle: saline) was 98 % of control.
Turning to `N#C/C(=C\c1ccccc1)C(=O)Nc1ccccc1`, the T/C is, setting by setting: under setting [10], 94 % of control; under setting [11], 92 % of control; under setting [12], 92 % of control.
Turning to `OC(c1ccccc1)(c1ccccc1)C(F)(Cl)Cl`, the T/C was 101 % of control under setting [3], 94 % of control under setting [5] and 90 % of control under setting [6].
Regarding `CC(CCl)(CCl)CCl`, the T/C runs as follows: (dose: 50.0 mg/kg/injection, schedule: Q01DX009 (ip), vehicle: saline sonified) 96 % of control; (dose: 100.0 mg/kg/injection, schedule: Q01DX001 (ip), vehicle: saline sonified) 99 % of control; (dose: 100.0 mg/kg/injection, schedule: Q01DX009 (ip), vehicle: saline sonified) 106 % of control; (dose: 200.0 mg/kg/injection, schedule: Q01DX001 (ip), vehicle: saline sonified) 96 % of control; (dose: 200.0 mg/kg/injection, schedule: Q01DX009 (ip), vehicle: saline sonified) 94 % of control.
In the case of `CNC(=O)NCC1OC(n2cnc3c(N)ncnc32)C(O)C1O` (stereo unspecified), the T/C by setting is: under setting [13], 98 % of control; (dose: 200.0 mg/kg/injection, schedule: Q01DX001 (ip), vehicle: Klucel (hydroxypropylcellulose) (HPC)) 98 % of control; (dose: 400.0 mg/kg/injection, schedule: Q01DX001 (ip), vehicle: Klucel (hydroxypropylcellulose) (HPC)) 95 % of control.
Regarding `NNc1ccc(Br)cc1`, the T/C runs as follows: under setting [14], 102 % of control; under setting [15], 115 % of control.
As to `CN(C)C(=S)N(C(=S)N(C)C)c1ccccc1`, the T/C runs as follows: under setting [7], 95 % of control; under setting [8], 103 % of control; under setting [9], 108 % of control.
With `CCSc1nc(N)c(C#N)cc1C#N`, the T/C was 105 % of control under setting [16], 88 % of control under setting [10], 95 % of control under setting [17] and 95 % of control under setting [11].
Take `NNC(=O)c1nc2ccccc2s1`: the T/C is, setting by setting: (dose: 75.0 mg/kg/injection, schedule: Q01DX001 (ip), vehicle: other) 96 % of control; (dose: 150.0 mg/kg/injection, schedule: Q01DX001 (ip), vehicle: other) 98 % of control.
As to `CC(=O)Nc1nc(C)c(CCCNS(=O)(=O)c2ccc(N)cc2)c(=O)[nH]1`, the T/C reads like this: (dose: 25.0 mg/kg/injection, schedule: Q01DX001 (ip), vehicle: Klucel (hydroxypropylcellulose) (HPC)) 102 % of control; (dose: 50.0 mg/kg/injection, schedule: Q01DX001 (ip), vehicle: Klucel (hydroxypropylcellulose) (HPC)) 92 % of control; under setting [13], 95 % of control.
On to `CCN(CC)CCOB(OCCN(CC)CC)OCCN(CC)CC`, for which the T/C was 95 % of control and 101 % of control under setting [1]; 96 % of control (dose: 50.0 mg/kg/injection, schedule: Q04DX003 (ip), vehicle: saline); 101 % of control and 110 % of control under setting [2]; 101 % of control and 106 % of control (dose: 100.0 mg/kg/injection, schedule: Q04DX002 (ip), vehicle: saline); 96 % of control under setting [3]; 97 % of control and 103 % of control under setting [4]. Moreover, the T/C by setting is: (dose: 200.0 mg/kg/injection, schedule: Q04DX002 (ip), vehicle: saline) 101 % of control and 103 % of control; under setting [5], 100 % of control; (dose: 400.0 mg/kg/injection, schedule: Q04DX002 (ip), vehicle: saline) 95 % of control.
On to `CCOC(=O)C1CCCCC1=O` (stereo unspecified), for which the T/C reads like this: under setting [16], 88 % of control; under setting [10], 93 % of control; under setting [17], 97 % of control; under setting [11], 98 % of control; (dose: 400.0 mg/kg/injection, schedule: Q01DX009 (ip), vehicle: Klucel (hydroxypropylcellulose) (HPC)) 111 % of control; under setting [12], 96 % of control.
For the compound `CCN(CC)CCNc1ccc([N+](=O)[O-])c2sc3ccccc3c(=O)c12`, the T/C was 121 % of control (dose: 17.7 mg/kg/injection, schedule: Q01DX Z (ip), vehicle: carboxymethylcellulose (CMC)); 223 % of control (dose: 37.0 mg/kg/injection, schedule: Q01DX Z (ip), vehicle: methylcellulose (MC)); 152 % of control (dose: 40.0 mg/kg/injection, schedule: Q01DX Z (ip), vehicle: carboxymethylcellulose (CMC)); 201 % of control (dose: 56.0 mg/kg/injection, schedule: Q01DX Z (ip), vehicle: methylcellulose (MC)); 156 % of control (dose: 60.0 mg/kg/injection, schedule: Q01DX Z (ip), vehicle: carboxymethylcellulose (CMC)); 181 % of control (dose: 90.0 mg/kg/injection, schedule: Q01DX Z (ip), vehicle: carboxymethylcellulose (CMC)). For the same compound, the T/C (dose: 126.0 mg/kg/injection, schedule: Q01DX Z (ip), vehicle: methylcellulose (MC)) is 115 % of control.
Consider `O=[N+]1c2ccccc2N([O-])C2CCCCC21` (stereo unspecified), for which the T/C is 93 % of control under setting [14]; 93 % of control under setting [15]; 104 % of control (dose: 400.0 mg/kg/injection, schedule: Q04DX002 (ip), vehicle: Klucel (hydroxypropylcellulose) (HPC)).
Consider `Cc1ccc(S(=O)(=O)OCC2OC(C)(C)OC3C(COS(=O)(=O)c4ccc(C)cc4)OC(C)(C)OC23)cc1` (stereo unspecified), for which the T/C reads like this: under setting [7], 99 % of control; under setting [8], 89 % of control; under setting [9], 99 % of control.
